Source: US20040115790A1, “Method for production of secreted proteins in fungi” (priority 2001, published 2004)

Columns and labels:
[1] = test system: T. reesei Rut-C30; experiment: Metabolic labelling (35S-methionine): total protein synthesis and secretion in treated T. reesei cultures; format: cell-based, Trichoderma reesei; conditions: percentage of non-treated control cultures, 5 μM A23187, 50 μg/ml BFA or 10 mM DTT; for Total protein secretion rate: TCA insoluble radioactivity in culture supernatant
[2] = test system: T. reesei Rut-C30; experiment: Synthesis and secretion of labelled CBHI (2D gel, phosphorimager) in treated T. reesei cultures; format: cell-based, Trichoderma reesei; conditions: for CBHI synthesis rate / CBHI secretion rate: percentage of non-treated control cultures; for CBHI secretion rate: production into culture medium; for Minimum secretion time of CBHI: untreated cells 11 min
Method: Proteins were metabolically labelled with ^35S-methionine using the methods described in (Pakula et al. 2000). The preparation of the samples and analysis of the labelled proteins were carried out essentially as in (Pakula et al. 2000). The labelling experiment was started after 10 min of addition of DTT or A23187 or after 15 min of addition of BFA. 1 mCi of [^35S]-methionine (Amersham S J 1015, in vivo cell labelling grade, 1000 Ci mmol^−1, 10 μCi μl^−1) was added to a 50 ml aliquot of the cultivation. Untreated cultures were labelled in parallel and in a similar manner. Samples of 2 ml were collected during a time course. Labelled total protein in cell extracts and culture supernatant was measured using scintillation counting of TCA insoluble material in the samples, and labelled specific proteins (e.g. CBHI) were analysed using 2D gel electrophoresis, and the proteins were quantified using a phosphorimager (Molecular Dynamics). The rates of protein synthesis and secretion, and the average synthesis time and minimum secretion time were determined as described in Pakula et al. 2000.
The effect of the treatments on the synthesis of extracellular proteins, specifically, and on their transport was studied using the major cellulase produced by the fungus, cellobiohydrolase I (CBHI), as a model protein. […] The effect of the treatment with the ionophore A23187 on protein transport was less pronounced. Formation of the full pI pattern of CBHI was delayed by 15-20 minutes compared to the control cells, and CBHI with full pattern of the pI forms was secreted into the culture medium but with a delay.
The labelled CBHI from samples of cell extract and culture supernatant at different time points of the labelling experiment was analysed in 2D gels and quantified using a phosphorimager (Molecular Dynamics). Parameters, such as the synthesis and secretion rate of CBHI (the amount of labelled protein produced per time unit) as well as the average synthesis time and the minimum secretion time of CBHI, were determined (for the method see Pakula et al. 2000). The quantification of the labelled CBHI during the labelling experiment is shown in FIG. 3, and the deduced parameters describing the synthesis and secretion of CBHI in these conditions are summarised in the Table 1. The average synthesis time of full-length CBHI was not affected in the DTT and BFA treated cultures, being in accordance with the result that total protein synthesis is not affected by these treatments (see above).

[3] = test system: A. niger AB4.1; experiment: Northern analysis of transcript levels in DTT treated A. niger cultures; format: cell-based, Aspergillus niger; conditions: 20 mM DTT
Method: The Aspergillus niger strains used in the experiments were AB4.1 (van Hartingsveldt et al., 1987) and AS1.1 (Ngiam et al., 2000). Spores resuspended in 0.1% Tween 20 (Sigma, UK) were used to inoculate liquid cultures to a final density of 1×10^5 spores per ml of medium. The strains were maintained on potato dextrose agar slopes (Difco, USA) with a supplement of 10 mM uridine for A. niger AB4.1. Slopes were grown at 30° C. until they had sporulated and made fresh for each experiment. ACMS/N/P medium (Archer et al., 1990) was used for all the experiments involving liquid culture. A. niger AB4.1 cultures were again supplemented with 10 mM uridine. Cultures were grown in 100 ml aliquots of medium in 250 ml conical flasks at 25° C. and 150 rpm. In the DTT stress experiments, AB4.1 cultures were grown for 44 hours before addition of 1 ml of 2M DTT solution to give a final concentration of 20 mM. […]
Total RNA was extracted from 100 mg of freeze dried, ground mycelia using the RNeasy Plant Mini Kit (Qiagen, UK) according to the manufacturer's instructions. RNA was quantified by reading absorbances at 230, 260 and 280 nm on a Uvikon 850 spectrophotometer (Kontron Instruments, UK). Ratios of over 2.0 for the 260 nm:280 nm readings were accepted as being indicative of good quality RNA. RNA quality was also assessed by running samples on 7% formaldehyde gels (Sambrook et al., 1989). […]

[4] = test system: T. reesei Rut-C30; experiment: Northern analysis of transcript levels in treated T. reesei cultures; conditions: for Expression of the short form of hac1 mRNA: normalised with total hac1 signal
Method: T. reesei strain Rut-C30 (Montenecourt & Eveleigh, 1979) was cultivated on minimal medium ((H4)2SO4 7.6 g l^−1, KH2PO4 15.0 g l^−1, MgSO4.7H2O 0.5 g l^−1, CaCl2.H2O 0.2 g l^−1, CoCl2 3.7 mg l^−1, FeSO4.7H2O 5 mg l^−1, ZnSO4.7H2O 1.4 mg l^−1, MnSO4.7H2O 1.6 mg l^−1, pH adjusted to 5.2 with KOH) that contained lactose 20 g l^−1 as a carbon source. Spore suspension with 2×10^7 spores (stored in −80° C. in 20% glycerol) was inoculated into 200 ml of the medium, grown in shake flasks at 28° C. with shaking at 210 rpm. After 4 days of cultivation the cultures were diluted 1/10 into fresh medium, grown further for 24 h, and treated either with 10 mM dithiothreitol (DTT), 50 μg/ml brefeldin A (BFA) or 5 μM Ca^2+-ionophore A23187. A corresponding volume of the solvent of the stock solution was added into the untreated control cultures (0.2% and 0.5% DMSO for the control cultures for A23187 and BFA treatment, respectively, and double distilled water for the control for DTT treatment).
For the Northern analysis mycelial samples were collected from cultures treated with DTT, BFA or A23187 and from the untreated control cultures after 0, 15, 30, 60, 90, 120, 240 and 360 minutes of the treatment. The first sample (the time point 0 min was withdrawn immediately before addition of DTT, BFA or A23187). The mycelium was filtered, washed with equal volume of 0.7% NaCl, frozen immediately in liquid nitrogen, and stored at −80° C. Total RNA was isolated using the Trizol™ Reagent (Gibco BRL) essentially according to manufacturer's instructions. Northern blotting and hybridisation was carried out according to standard procedures (Sambrook et al). Full-length cDNA of the genes were used as probes.
Northern analysis of the samples collected during the treatment with A23187, DTT or BFA was carried out to study the effect of the treatments at transcriptional level.

[5] = 5 μM A23187, 50 μg/ml BFA or 10 mM DTT

SMILES | Total protein secretion rate [1] | CBHI synthesis rate [2, 5] | CBHI secretion rate [2, 5] | pdiA and bipA mRNA response [3] | Levels of pepA mRNA ([3]; control cultures show an increase) | Expression level of sar1 and ypt1 ([4]; 10 mM DTT) | Transcript level of xyn1 and hfb2 ([4]; 10 mM DTT) | Expression of the short form of hac1 mRNA [4] | Minimum secretion time of CBHI [2, 5] | Total protein synthesis rate ([1]; TCA insoluble radioactivity in cell extracts) | Delay of formation of the full pI pattern of CBHI compared to the control cells ([2]; 5 μM A23187) | Increase of minimum secretion time of CBHI compared to the control cultures ([2]; 5 μM A23187) | Prolongation of synthesis time of CBHI compared to the control cultures ([2]; 5 μM A23187) | Average time of CBHI synthesis ([2]; untreated cells 5.7 min, 5 μM A23187, 50 μg/ml BFA or 10 mM DTT)
O[C@H](CS)[C@H](O)CS (racemic) [DTT, dithiothreitol] | 5% | 4-24% | no production of labelled CBHI into the culture medium was detected | rapid response | no significant increase | not affected | reduced | expression of the shortened, actively translated form |  |  |  |  |  | 
C[C@H]1CCC/C=C/[C@@H]2C[C@H](O)C[C@H]2[C@H](O)/C=C/C(=O)O1 [BFA, brefeldin A] | 5% | 52% | 4% |  |  |  |  | expression of the shortened, actively translated form | 69 min |  |  |  |  | 
CNc1ccc2oc(C[C@H]3O[C@@]4(CC[C@H]3C)O[C@H]([C@H](C)C(=O)c3ccc[nH]3)[C@H](C)C[C@H]4C)nc2c1C(=O)O [A23187] | 23% | 26% | 27% |  |  |  |  | transient and rather weak expression | 21 min | 51% | 15-20 minutes | 10 min | 3 to 4 min | 9 min
